Assay results from article PMC9886266, “New [1,2,4]triazolo[4,3-c]quinazolines as intercalative Topo II inhibitors: Design, synthesis, biological evaluation, and in silico studies” (PLOS ONE, 2023).

Legend:
Bcl-2 = assay: Western blot, Bcl-2 level; assay type: cell-based, human; conditions: HCT-116, 2.44 μM, 48 h
Description: In comparison to the control, compound 16 elevated the level of the proapoptotic protein (BAX) by 2.18 times. […] Furthermore, compound 16 enhanced the BAX/Bcl-2 ratio by 4.38-fold in comparison to control cells.
The effects of compound 16 on the expression of BAX, and Bcl‐2 were determined using Western blot analysis [62–64]as described in Electronic Supplementary Material S2.7 in S1 Appendix. […]
for 48 h. Then, the cells were fixed in 70% ethanol at 4 °C for 12 h. After that, the cells were washed with cold PBS, incubated with 100 μl RNase A at 37 °C for 30 min, and stained with 400 μl PI in the dark at room temperature for further 30 min. The stained cells were measured using Epics XL-MCL™ Flow Cytometer (Beckman Coulter), and the data were analyzed using Flowing software (version 2.5.1, Turku Centre for Biotechnology, Turku, Finland).
S2.6. Flow cytometry analysis for apoptosis
Flow cytometry cell apoptosis analysis was used to investigate the apoptotic effect of the synthesized compounds. […] The stained cells were measured using Epics XL-MCL™ Flow Cytometer and analyzed using Flowing software. […]
The proteins expression of BAX, and Bcl‐2 were determined using Western blot analysis. […] Total protein concentrations in the supernatant were determined colorimetrically using the Pierce 660 nm Protein Assay method (Thermo Fisher Scientific, Rockford, IL), with BSA as the standard. […]

HepG2 cell line = assay: MTT anti-proliferative assay, HepG2; assay type: cell-based; conditions: Homo sapiens, 48 h, three independent experiments, read-out: In vitro cytotoxicity IC50, HepG2
Description: In vitro antiproliferative activities of the target molecules were assessed against two human cancer cell lines namely, hepatocellular carcinoma (HepG2) and colorectal carcinoma (HCT-116) using MTT assay.
The anti-proliferative activity of the synthesized compounds was assessed using MTT assay protocol. A panel of human cancer cell lines namely, colorectal carcinoma (HCT-116) and hepatocellular carcinoma (HepG2) was used in this test. Doxorubicin was used as a positive control. The cell lines were got from ATCC (American Type Culture Collection) via the Holding company for biological products and vaccines (VACSERA, Cairo, Egypt). The anti-proliferative activities of the tested compounds were determined quantitatively as follows:
At first, the cells were cultured into a medium of RPMI-1640 with 10% fetal bovine serum. Then, two different antibiotics were added at 37°C in a 5% CO2 incubator: penicillin (100 units/mL) and streptomycin (100 μg/mL). Next, we seeded the cells in a 96-well plate by a density of 1.0 x 10^4 cells / well at 37°C for 48 h under 5% CO2. The synthesized compounds with different concentrations were applied into the cell lines and incubated for 48 h. After 48 h, 20 μl of MTT solution (5mg/mL) was added and incubated for 4 h. Then, DMSO (100 μl) was added into each well to dissolve the formed purple formazan. After that, a colorimetric assay was measured and recorded at absorbance of 570 nm using a plate reader (EXL 800, USA). The relative cell viability in percentage was calculated as (A570 of treated samples/A570 of untreated sample) X 100.
S2: Biological evaluation
S2.1. In vitro cytotoxic activity
The anti-proliferative activity of the synthesized compounds was assessed using MTT assay protocol. A panel of human cancer cell lines namely, colorectal carcinoma (HCT-116) and hepatocellular carcinoma (HepG2) was used in this test. As we targeted the DNA and Topo […]
cell lines were got from ATCC (American Type Culture Collection) via the Holding company for biological products and vaccines (VACSERA, Cairo, Egypt). The anti -proliferative activities of the tested compounds were determined quantitatively as follows:
At first, the cells were cultured into a medium of RPMI-1640 with 10% fetal bovine serum.
Then, two different antibiotics were added at 37 ᵒC in a 5% CO2 incubator: penicillin (100 units/mL) and streptomycin (100 µg/mL). Next, we seeded the cells in a 96 -well plate by a density of 1.0 x 10^4 cells / well at 37 ᵒC for 48 h under 5% CO2. The synthesized compounds with different concentrations were applied into the cell lines and incubated for 48 h. After 48 h, 20 µl of MTT solution (5mg/mL) was added and incubated for 4 h. Then, DMSO (100 µl) was added into each well to dissolve the formed purple formazan. After that, a colorimetric assay was measured and recorded at absorbance of 570 nm using a plate reader (EXL 800, USA). The relative cell viability in percentage was calculated as (A570 of treated samples/A570 of untreated sample) X 100. […]

CCCNc1nc2ccccc2c2nnc(C(F)(F)F)n12 [Compound 16, N-Propyl-3-(trifluoromethyl)-[1,2,4]triazolo[4,3-c]quinazolin-5-amine]
Reduction of Bcl-2 level compared to control (Bcl-2): 1.9 fold
Protein expression (normalized to β-actin) Bcl-2 (Bcl-2; control = 1.00): 0.52 ± 0.08
IC50 (HepG2 cell line): 6.29 ± 0.3 µM
